Test results from patent EP0408294B1, “Use of an amylin antagonist for the manufacture of amedicament for the treatment of obesity and essential hypertension and related disorders” (AMYLIN PHARMACEUTICALS, INC., priority 1989, dated 1995).
Positions of bridges follow the written chain, without caps; N, C: chain ends. No end group written: not given here.

How the values were obtained:
[1] = test system: isolated soleus muscle; experiment: amylin antagonist assay: incorporation of radiolabelled glucose into glycogen in isolated soleus muscle; assay type: cell-based, rats; conditions: 1000µU/mL insulin, 20nM amylin
Method: In a further experiment we have shown that the […] CGRP 8-37 also functions as a partial amylin antagonist. Insulin was obtained as Humulin-R, 100U/mL, recombinant human insulin (Eli Lilly, Indianapolis, IN). Amylin, obtained as rat amylin (Bachem, Torrance, CA) and 8-37 human CGRP (Bachem, Torrance CA) were also used. An antagonist assay was performed in vitro using the isolated soleus muscle from rats. It measured the rate of incorporation of radiolabelled glucose into muscle glycogen as follows: (1) under hormone-free conditions (zero insulin, zero amylin, zero hCGRP₈₋₃₇ [antagonist]); (2) under conditions of stimulation of glycogen formation with insulin (1000µU/mL insulin, zero amylin, zero antagonist); (3) under conditions where the near maximal stimulation of glycogen formation has been inhibited with amylin (1000µU/mL insulin, 20nM amylin, zero antagonist); and, (4) under conditions where the suppression of glycogen formation by amylin has been disinhibited by an antagonist to the amylin action (1000µU/mL insulin, 20nM amylin, range of concentrations of antagonist [0, 1nM, 10nM, 100nM, 300nM, 1µM, 10µM]) There were therefore […] (conditions 1,2,3 and […] of condition 4). […]

[2] = test system: normal rats; experiment: intravenous amylin bolus in normal rats; assay type: in vivo
Method: Similar results have been obtained using amylin. We have also shown that amylin acutely produces diabetes (fasting hyperglycemia greater than 140 mg/dL) when administered intravenously. Eight normal rats were injected with a 100µg bolus of amylin (rat amylin, Bachem, Torrance, CA). An intravenous amylin bolus produced a profound hyperglycemia to diabetic levels within 15-30 minutes (usually around 200 mg/dL). This hyperglycemia persists for several hours. The hyperglycemia is partly accounted for by an increase in hepatic (endogenous) glucose output and partly by an increased impediment in peripheral glucose disposal. […] There is an increase in respiratory quotient (RQ) after amylin only when somatostatin is absent and insulin is allowed to increase in response to hyperglycemia. During somatostatin infusion (no endogenous insulin release), there is no change in RQ, indicating no change from lipid to carbohydrate fuel usage in response to amylin in the fasted animal.

[3] = test system: red skeletal muscle; experiment: glycogen synthesis in amylin-treated skeletal muscle in vitro; assay type: cell-based, rat; conditions: insulin at the concentration necessary for half-maximal stimulation in non amylin-treated muscles
From the text: (§1) In muscles treated with amylin, there was no response to insulin at the concentration necessary for half-maximal stimulation in non amylin-treated muscles. The effects of amylin were seen even in the presence of very low concentrations of insulin. Amylin produced a 30 percent reduction in the basal rate of glycogen synthesis in the presence of a basal concentration (1 µU/ml) of insulin. In marked contrast, amylin had no effect on either the basal or the insulin-stimulated rates of formation of CO₂ or triacyglycerol in isolated adipocytes. The effect of amylin treatment in muscle could only be overcome by increasing the concentration of insulin to the supra-physiological level of 1000 uU/ml.
(§2) • Figure 1 indicates the effect of amylin on the insulin-stimulated fate of glucose uptake in isolated incubated skeletal muscles of the rat. • Figure 2a indicates the effect of a CGRP infusion on glucose uptake in an anaesthetised rat under conditions of hyperinsulinaemic, euglycaemic glucose clamp, in which insulin alone was initially infused, following by insulin and CGRP. Similar results have been obtained with an infusion of amylin. • Figure 2b indicates the effect of an infusion of CGRP in an anaesthetised rat under conditions of hyperinsulinaemic, euglycaemic clamp, in which insulin and CGRP were initially infused together, followed by cessation of the CGRP infusion. […]

[4] = test system: isolated adipocytes; experiment: formation of CO₂ or triacyglycerol in isolated adipocytes; assay type: cell-based
From the text: as §1
Amylin acts by reducing both basal and insulin-induced uptake of glucose into skeletal muscle, especially by reducing the rate of incorporation of glucose into glycogen, and also by reducing the rate of glucose uptake into muscle cells (Molina, M. et al., Science 1989; submitted). […] We have concluded that amylin causes the insulin-resistance in type 2 diabetes, probably in conjunction with CGRP and/or CGRP receptors.

[5] = test system: anaesthetised rats; experiment: hyperinsulinemic, euglycemic glucose clamp with CGRP infusion; assay type: in vivo, rat
Method: as §2, with “infusion. Similar results have been obtained with an infusion of amylin. • Figure 3 indicates the effect of CGRP on hepatic glucose output in anaesthetised rats, under conditions of hyperinsulinaemic, euglycaemic glucose clamp. Error bars give standard error of the mean. • Figure 4 indicates the effect of CGRP on insulin-stimulated glucose uptake in isolated BC3H-1 myocytes. • Figure 5 indicates the relationship between maximal insulin resistance, as measured by maximal insulin-stimulatable glucose disposal, and levels of serum CGRP-like immunoreactivity in the blood of a group of insulin-resistant type 2 diabetic human patients.” for “infusion.”

With “CGRP₈₋₃₇: 8-37 human CGRP (Bachem), sub-peptide of CGRP, partial amylin antagonist” the “increment in the rate of glycogen synthesis from the amylin-inhibited level” value ([1]; antagonist 1nM to 10µM, maximal increment) was “about 115%” and the EC50 ([1]; 4-parameter logistic fit, read-out: EC₅₀ for disinhibition (half maximal concentration)) was 1.2 nM.
In the case of “amylin: 37-amino acid peptide hormone from islet amyloid, Cys 2-7 disulfide bridge, amidated; rat amylin from Bachem used in tests (KCNTATCATQRLANFLVRSSNNLGPVLPPTNVGSNTY-NH2; disulfide 2-7; UniProt P12969 38-74, looked up)”, the persistence of hyperglycemia ([2]; 100µg intravenous bolus of rat amylin) is reported as “several hours”, the “hyperglycemia (glucose level reached)” value ([2]; 100µg intravenous bolus of rat amylin, eight normal rats) is reported as “around 200 mg/dL” and the “respiratory quotient (RQ)” value ([2]; after amylin, somatostatin absent, insulin allowed to increase in response to hyperglycemia) is reported as “increase”. For the same substance, the plasma lactate ([2]; after intravenous amylin bolus) was “transient increase”, the “respiratory quotient (RQ)” value ([2]; during somatostatin infusion (no endogenous insulin release), fasted animal) was “no change” and the “response to insulin in muscles treated with amylin” value [3] was “no response”. For the same substance, the “effect on basal or insulin-stimulated rates of formation of CO₂ or triacyglycerol” value [4] was “no effect”.
With CGRP the “glucose infusion rate, new steady state” value ([5]; Figure 2A protocol, CGRP 0.02 ug/kg/min from 80-150 minutes during constant insulin infusion 1.8 mU/kg/min) was 18.0 ± 0.1 mg/kg/min and the “rise of glucose disposal rate (GDR) over basal” value ([5]; Figure 2B protocol, 3H-glucose, last 20 mins of period, CGRP = CGRP plus insulin, insulin = insulin alone, basal GDR 11.2 ± 0.7) was 7.4 ± 1.6 mg/kg/min.
